Inconclusive results and toxic doses are left out. How the source made its calls: active means survival T/C of 150% or more; inactive means T/C below 125% in these data.
Tested on: P388 leukemia ip, CD2F1 mice, survival T/C
Test: NCI In Vivo Anticancer Drug Screen. Data for tumor model P388 Leukemia (intraperitoneal) in CD2F1 (CDF1) mice
Conditions: endpoint: median survival time, higher = longer survival
Outline: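 Mice carrying the transplanted tumor received test compound or vehicle. Survival was recorded in each group, and the value is the treated-group measurement divided by that of the vehicle-treated control group.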

[1] = dose: 25.0 mg/kg/injection, schedule: Q01DX009 (ip), vehicle: saline with Tween-80
[2] = dose: 50.0 mg/kg/injection, schedule: Q01DX009 (ip), vehicle: saline with Tween-80
[3] = dose: 200.0 mg/kg/injection, schedule: Q01DX009 (ip), vehicle: saline with Tween-80
[4] = dose: 50.0 mg/kg/injection, schedule: Q01DX005 (ip), vehicle: Klucel (hydroxypropylcellulose) (HPC)
[5] = dose: 100.0 mg/kg/injection, schedule: Q01DX005 (ip), vehicle: Klucel (hydroxypropylcellulose) (HPC)
[6] = dose: 200.0 mg/kg/injection, schedule: Q01DX005 (ip), vehicle: Klucel (hydroxypropylcellulose) (HPC)
[7] = dose: 60.0 mg/kg/injection, schedule: Q01DX005 (ip), vehicle: Klucel (hydroxypropylcellulose) (HPC)
[8] = dose: 120.0 mg/kg/injection, schedule: Q01DX005 (ip), vehicle: Klucel (hydroxypropylcellulose) (HPC)
[9] = dose: 240.0 mg/kg/injection, schedule: Q01DX005 (ip), vehicle: Klucel (hydroxypropylcellulose) (HPC)

Measured: T/C

O=C(O)/C=C\C(=O)OCc1ccc(Cl)cc1Cl
inactive: [1] 86 % of control | [2] 90 % of control

Nc1nc(N)c2cc(Sc3ccc(Cl)cc3)ccc2n1
inactive: [1] 118 % of control | [3] 86 % of control

Fc1cccc(CSC(=S)Nc2ccc(Cl)c(C(F)(F)F)c2)c1
inactive: dose: 50.0 mg/kg/injection, schedule: Q01DX009 (ip), vehicle: suspension in saline 98 % of control | dose: 100.0 mg/kg/injection, schedule: Q01DX009 (ip), vehicle: suspension in saline 93 % of control | dose: 200.0 mg/kg/injection, schedule: Q01DX009 (ip), vehicle: suspension in saline 98 % of control

C=C1C2CCC3(C)C(c4ccoc4)OC(=O)CC13OC1CC(=O)C(C)(C)C(CC(=O)OC)C12C (configuration not stated)
inactive: [1] 99 % of control | [2] 99 % of control | dose: 100.0 mg/kg/injection, schedule: Q01DX009 (ip), vehicle: saline with Tween-80 99 % of control | [3] 98 % of control

Oc1ccccc1-c1cc(-c2ccccc2)nc(NCCCCCCNc2nc(-c3ccccc3)cc(-c3ccccc3O)n2)n1
inactive: [4] 90 % of control | [5] 90 % of control

O=CNC(Cc1ccccc1)c1ccc(OCc2ccccc2)cc1 (configuration not stated)
inactive: [4] 98 % of control | [5] 92 % of control | [6] 87 % of control

NC1=NS(=O)(=O)c2ccccc21
inactive: dose: 50.0 mg/kg/injection, schedule: Q01DX005 (ip), vehicle: saline with Tween-80 101 % of control | dose: 100.0 mg/kg/injection, schedule: Q01DX005 (ip), vehicle: saline with Tween-80 106 % of control | dose: 200.0 mg/kg/injection, schedule: Q01DX005 (ip), vehicle: saline with Tween-80 99 % of control

Cc1n[nH]c(=O)n(/N=C/c2ccc(N(C)C)cc2)c1=O
inactive: [7] 98 % of control | [8] 97 % of control

CC1(C)S/C(=C\c2ccccc2)c2nc3ccccc3c(=O)n21
inactive: dose: 60.0 mg/kg/injection, schedule: Q01DX005 (ip), vehicle: saline with Tween-80 97 % of control | dose: 120.0 mg/kg/injection, schedule: Q01DX005 (ip), vehicle: saline with Tween-80 91 % of control | dose: 240.0 mg/kg/injection, schedule: Q01DX005 (ip), vehicle: saline with Tween-80 89 % of control

Cc1cc(O)cc(O)c1C(=O)OC1CC2(C)C3CC(C)(C)CC3C=C(C=O)C12O (configuration not stated)
inactive: dose: 1.5 mg/kg/injection, schedule: Q01DX005 (ip), vehicle: Klucel + Tween-80 107 % of control | dose: 3.0 mg/kg/injection, schedule: Q01DX005 (ip), vehicle: Klucel + Tween-80 97 % of control | dose: 6.0 mg/kg/injection, schedule: Q01DX005 (ip), vehicle: Klucel + Tween-80 103 % of control | dose: 12.0 mg/kg/injection, schedule: Q01DX005 (ip), vehicle: Klucel + Tween-80 99 % of control

C=C(Br)C[C@]1(C(=O)OC)CC(=O)CC[C@H]1c1ccco1
inactive: [7] 108 % of control | [8] 107 % of control | [9] 106 % of control

CC(=O)NOCC1NC(=O)C(CONC(C)=O)NC1=O (configuration not stated)
inactive: dose: 30.0 mg/kg/injection, schedule: Q01DX005 (ip), vehicle: saline 103 % of control | [7] 105 % of control | dose: 60.0 mg/kg/injection, schedule: Q01DX005 (ip), vehicle: saline 103 % of control | [8] 115 % of control | dose: 120.0 mg/kg/injection, schedule: Q01DX005 (ip), vehicle: saline 108 % of control | [9] 120 % of control | dose: 240.0 mg/kg/injection, schedule: Q01DX005 (ip), vehicle: saline 120 % of control

N#CC1C(=O)NC(=S)NC1c1ccc(Cl)c(Cl)c1 (configuration not stated)
inactive: dose: 50.0 mg/kg/injection, schedule: Q01DX009 (ip), vehicle: Klucel (hydroxypropylcellulose) (HPC) 100 % of control | dose: 100.0 mg/kg/injection, schedule: Q01DX009 (ip), vehicle: Klucel (hydroxypropylcellulose) (HPC) 95 % of control | dose: 200.0 mg/kg/injection, schedule: Q01DX009 (ip), vehicle: Klucel (hydroxypropylcellulose) (HPC) 95 % of control

COC(=O)C[C@@]1(C(=O)OC)[C@H](C(=O)OC)[C@@H](C(=O)OC)N(C(C)=O)N1C
inactive: [4] 105 % of control | [5] 105 % of control | dose: 100.0 mg/kg/injection, schedule: Q04DX002 (ip), vehicle: Klucel (hydroxypropylcellulose) (HPC) 104 % of control | [6] 103 % of control | dose: 200.0 mg/kg/injection, schedule: Q04DX002 (ip), vehicle: Klucel (hydroxypropylcellulose) (HPC) 95 % of control | dose: 400.0 mg/kg/injection, schedule: Q04DX002 (ip), vehicle: Klucel (hydroxypropylcellulose) (HPC) 103 % of control

— PubChem BioAssay AID330 (DTP/NCI, 2004)
